Data taken from patent publication US8044236B2, “Carboxilic acid derivatives” (Institute of Medicinal Molecular Design, Inc., priority 2006, dated 2011).
Structures can show the parent of a compound that is named as a salt.

Target: recombinant human PAI-1 (Homo sapiens, UniProt P05121)
Test: Test Example 1: human PAI-1 inhibitory activity (tPA fluorogenic substrate, pH7.5 Tris buffer)
Type: biochemical
Set-up: purchased Molecular Innovations, Inc
Details: for Inhibition Rate of Human PAI-1 Activity (%): Tris buffer pH7.5
[1] = pH 7.5, read-out: Inhibition Rate of Human PAI-1 Activity (%)

recombinant human PAI-1, sequence (P05121 24-402): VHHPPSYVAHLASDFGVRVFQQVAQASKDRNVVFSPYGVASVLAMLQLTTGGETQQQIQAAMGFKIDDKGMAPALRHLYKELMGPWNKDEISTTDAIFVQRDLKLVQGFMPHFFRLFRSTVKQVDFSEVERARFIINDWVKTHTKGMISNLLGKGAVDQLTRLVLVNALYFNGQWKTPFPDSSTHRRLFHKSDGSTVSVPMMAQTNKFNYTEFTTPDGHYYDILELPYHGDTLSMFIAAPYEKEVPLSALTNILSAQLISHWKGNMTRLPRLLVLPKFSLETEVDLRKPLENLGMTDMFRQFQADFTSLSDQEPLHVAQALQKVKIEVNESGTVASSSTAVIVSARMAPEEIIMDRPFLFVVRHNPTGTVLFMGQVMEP
Experimental: In a 96-well multiplate (black), 1.5 μl of DMSO solution of the present application compound prepared to achieve 80-fold the test concentration (=the final concentration when fluorogenic substrate is added) was diluted with 52.5 μl of pH7.5 Tris buffer. […] Furthermore, 30 μl of 800 IU/ml two-chain tPA (Activity Standard; American diagnostics, inc.) prepared by Tris buffer was added, and the mixed solution was incubated for 15 minutes at room temperature. To this, 30 μl of 400 μM fluorogenic substrate (Pyr-Gly-Arg-MCA; Peptide Institute, Inc.) for tPA prepared by Tris buffer was added and reacted for 30 minutes at room temperature.
<Composition of pH7.5 Tris Buffer)

| Structure (SMILES) | Inhibition Rate of Human PAI-1 Activity (%) (compound 5 μM) | Inhibition Rate of Human PAI-1 Activity (%) (compound 10 μM) | inhibition at 5 µM [1] | inhibition at 10 µM [1] | Inhibition Rate of Human PAI-1 Activity (%) (compound 25 μM) |
| --- | --- | --- | --- | --- | --- |
| O=C(O)Cc1cc(-c2ccc(OC(F)(F)F)cc2)ccc1OCc1ccccc1 [Compound 1, [4-benzyloxy-4′-(trifluoromethoxy)biphenyl-3-yl]acetic acid] | 18% | 31% | – | – | – |
| O=C(O)/C=C/c1cc(-c2ccc(OC(F)(F)F)cc2)ccc1OCc1ccccc1 [Compound 2, (E)-3-[4-benzyloxy-4′-(trifluoromethoxy)biphenyl-3-yl]propenoic acid] | – | – | 35% | 31% | – |
| O=C(O)CCc1cc(-c2ccc(OC(F)(F)F)cc2)ccc1OCc1ccccc1 [Compound 3, 3-[4-benzyloxy-4′-(trifluoromethoxy)biphenyl-3-yl]propanoic acid] | 35% | 68% | – | – | – |
| CC(C)(C)c1ccc(COc2ccc(-c3ccc(OC(F)(F)F)cc3)cc2/C=C/C(=O)O)cc1 [Compound 4, (E)-3-{4-[4-(tert-butyl)benzyloxy]-4′-(trifluoromethoxy)biphenyl-3-yl}propenoic acid] | 84% | 78% | – | – | – |
| CC(C)(C)c1ccc(COc2ccc(-c3ccc(OC(F)(F)F)cc3)cc2NC(=O)C(=O)O)cc1 [Compound 6, N-{4-[4-(tert-butyl)benzyloxy]-4′-(trifluoromethoxy)biphenyl-3-yl}oxamic acid sodium salt] | 83% | 94% | – | – | – |
| CC(C)(C)c1ccc(Oc2ccc(-c3ccc(OC(F)(F)F)cc3)cc2/C=C\C(=O)O)cc1 [Compound 12, (Z)-3-{4-[4-(tert-butyl)phenoxy]-4′-(trifluoromethoxy)biphenyl-3-yl}propenoic acid] | 92% | 94% | – | – | – |
| O=C(O)CCc1cc(-c2ccc(OC(F)(F)F)cc2)ccc1Oc1ccc(C(=O)O)cc1 [Compound 15, 3-[4-(4-carboxyphenoxy)-4′-(trifluoromethoxy)biphenyl-3-yl]propanoic acid] | – | 3% | – | – | – |
| CN(C(=O)C(=O)O)c1cc(-c2ccc(OC(F)(F)F)cc2)ccc1OCc1ccc(C(C)(C)C)cc1 [Compound 18, N-{4-[4-(tert-butyl)benzyloxy]-4′-(trifluoromethoxy)biphenyl-3-yl}-N-methyloxamic acid] | 37% | 67% | – | – | 97% |
| O=C(O)CCc1cc(-c2ccc(OC(F)(F)F)cc2)ccc1OCc1ccc(C(F)(F)F)cc1 [Compound 26, 3-{4′-(trifluoromethoxy)-4-[4-(trifluoromethyl)benzyloxy]biphenyl-3-yl}propanoic acid] | – | 13% | – | – | 80% |
| COc1ccccc1COc1ccc(-c2ccc(OC(F)(F)F)cc2)cc1CCC(=O)O [Compound 28, 3-[4-(2-methoxybenzyloxy)-4′-(trifluoromethoxy)biphenyl-3-yl]propanoic acid] | – | 7% | – | – | 47% |
| O=C(O)/C=C\c1cc(-c2ccc(OC(F)(F)F)cc2)ccc1OCc1ccccc1 [Compound 29, (Z)-3-[4-benzyloxy-4′-(trifluoromethoxy)biphenyl-3-yl]propenoic acid] | – | 11% | – | – | 64% |
| CC(C)(C)c1ccc(COc2ccc(-c3ccc(OC(F)(F)F)cc3)cc2/C=C\C(=O)O)cc1 [Compound 30, (Z)-3-{4-[4-(tert-butyl)benzyloxy]-4′-(trifluoromethoxy)biphenyl-3-yl}propenoic acid] | 96% | 97% | – | – | 93% |
| CC(C)(C)c1ccc(COc2ccc(-c3cccc(C(=O)O)c3)cc2CCC(=O)O)cc1 [Compound 31, 3-{4-[4-(tert-butyl)benzyloxy]-3′-carboxybiphenyl-3-yl}propanoic acid] | – | 9% | – | – | 25% |
| O=C(O)CCc1cc(-c2ccc(OC(F)(F)F)cc2)ccc1OCc1ccc(Cl)cc1Cl [Compound 32, 3-[4-(2,4-dichlorobenzyloxy)-4′-(trifluoromethoxy)biphenyl-3-yl]propanoic acid] | 5% | 29% | – | – | 92% |
| CCCCc1ccc(COc2ccc(-c3ccc(OC(F)(F)F)cc3)cc2CCC(=O)O)cc1 [Compound 35, 3-[4-(4-butylbenzyloxy)-4′-(trifluoromethoxy)biphenyl-3-yl]propanoic acid] | – | – | – | – | >99% |
| CC(C)(C)c1ccc(COc2ccc(-c3ccccc3)cc2/C=C/C(=O)O)cc1 [Compound 36, (E)-3-{4-[4-(tert-butyl)benzyloxy]biphenyl-3-yl}propenoic acid] | 21% | 49% | – | – | 89% |

| Structure (SMILES) | Inhibition Rate of Human PAI-1 Activity (%) (compound 5 μM) | Inhibition Rate of Human PAI-1 Activity (%) (compound 10 μM) | inhibition at 5 µM [1] | inhibition at 10 µM [1] | Inhibition Rate of Human PAI-1 Activity (%) (compound 25 μM) |
| --- | --- | --- | --- | --- | --- |
| CC(C)(C)c1ccc(COc2ccc(-c3ccccc3)cc2CCC(=O)O)cc1 [Compound 37, 3-{4-[4-(tert-butyl)benzyloxy]biphenyl-3-yl}propanoic acid] | 22% | 47% | – | – | 97% |
| CC(C)(C)c1ccc(COc2ccc(-c3ccc(F)cc3)cc2/C=C/C(=O)O)cc1 [Compound 38, (E)-3-{4-[4-(tert-butyl)benzyloxy]-4′-fluorobiphenyl-3-yl}propenoic acid] | 23% | 53% | – | – | 96% |
| CC(C)(C)c1ccc(COc2ccc(-c3ccc(F)cc3)cc2CCC(=O)O)cc1 [Compound 39, 3-{4-[4-(tert-butyl)benzyloxy]-4′-fluorobiphenyl-3-yl}propanoic acid] | 24% | 53% | – | – | 99% |
| CC(C)(C)c1ccc(COc2ccc(-c3ccc(C(F)(F)F)cc3)cc2/C=C/C(=O)O)cc1 [Compound 40, (E)-3-{4-[4-(tert-butyl)benzyloxy]-4′-(trifluoromethyl)biphenyl-3-yl}propenoic acid] | 28% | 57% | – | – | 95% |
| CC(C)(C)c1ccc(COc2ccc(-c3ccc(C(F)(F)F)cc3)cc2CCC(=O)O)cc1 [Compound 41, 3-{4-[4-(tert-butyl)benzyloxy]-4′-(trifluoromethyl)biphenyl-3-yl}propanoic acid] | 23% | 60% | – | – | 99% |
| COc1ccc(-c2ccc(OCc3ccc(C(C)(C)C)cc3)c(/C=C/C(=O)O)c2)cc1 [Compound 42, (E)-3-{4-[4-(tert-butyl)benzyloxy]-4′-methoxybiphenyl-3-yl}propenoic acid] | 23% | 47% | – | – | 84% |
| COc1ccc(-c2ccc(OCc3ccc(C(C)(C)C)cc3)c(CCC(=O)O)c2)cc1 [Compound 43, 3-{4-[4-(tert-butyl)benzyloxy]-4′-methoxybiphenyl-3-yl}propanoic acid] | 14% | 34% | – | – | 93% |
| CC(C)(C)c1ccc(COc2ccc(-c3ccc(C(C)(C)C)cc3)cc2/C=C/C(=O)O)cc1 [Compound 44, (E)-3-{4′-(tert-butyl)-4-[4-(tert-butyl)benzyloxy]biphenyl-3-yl}propenoic acid] | 25% | 56% | – | – | 94% |
| CC(C)(C)c1ccc(COc2ccc(-c3ccc(C(C)(C)C)cc3)cc2CCC(=O)O)cc1 [Compound 45, 3-{4′-(tert-butyl)-4-[4-(tert-butyl)benzyloxy]biphenyl-3-yl}propanoic acid] | 22% | 66% | – | – | >99% |
| CCCCc1ccc(-c2ccc(OCc3ccc(C(C)(C)C)cc3)c(CCC(=O)O)c2)cc1 [Compound 48, 3-{4′-butyl-4-[4-(tert-butyl)benzyloxy]biphenyl-3-yl}propanoic acid] | 29% | 66% | – | – | 94% |
| CSc1ccc(-c2ccc(OCc3ccc(C(C)(C)C)cc3)c(/C=C/C(=O)O)c2)cc1 [Compound 49, (E)-3-{4-[4-(tert-butyl)benzyloxy]-4′-(methylsulfanyl)biphenyl-3-yl}propenoic acid] | 16% | 25% | – | – | 21% |
| CC(C)(C)c1ccc(-c2ccc(OCc3ccccc3)c(/C=C/C(=O)O)c2)cc1 [Compound 52, (E)-3-[4-benzyloxy-4′-(tert-butyl)biphenyl-3-yl]propenoic acid] | 22% | 47% | – | – | 91% |
| CC(C)(C)c1ccc(-c2ccc(OCc3ccccc3)c(CCC(=O)O)c2)cc1 [Compound 53, 3-[4-benzyloxy-4′-(tert-butyl)biphenyl-3-yl]propanoic acid] | 20% | 50% | – | – | 93% |
| CC(C)(C)c1ccc(-c2ccc(OCc3ccc(OC(F)(F)F)cc3)c(/C=C/C(=O)O)c2)cc1 [Compound 56, (E)-3-{4′-(tert-butyl)-4-[4-(trifluoromethoxy)benzyloxy]biphenyl-3-yl}propenoic acid] | 32% | 69% | – | – | 94% |
| CC(C)(C)c1ccc(-c2ccc(OCc3ccc(OC(F)(F)F)cc3)c(CCC(=O)O)c2)cc1 [Compound 57, 3-{4′-(tert-butyl)-4-[4-(trifluoromethoxy)benzyloxy]biphenyl-3-yl}propanoic acid] | 28% | 64% | – | – | 94% |
